Measurements published in US20220288075A1, “METHOD AND COMPOSITION FOR TREATING PAIN” (ACADEMIA SINICA, priority 2019, published 2022).

Experiments:
RISS mice = experiment: RISS (repeated and intermittent sound stress) model, sensory testing (von Frey, muscle withdrawal threshold, Hargreaves); assay type: in vivo; settings: darapladib 10 mg/kg i.p. once daily throughout the RISS procedure, vs vehicle; FIG. 3N
Description: Sound stressors were applied as described^14, 43 with modification. Mice were placed (3 per cage) in a 20×30×15 cm bedding cage, which was kept 25 cm below a speaker, inside a 40×50×35 cm sound-insulated box. A speaker emitted pure tones at 5 frequencies (5, 11, 13, 15 and 19 kHz) with random amplitudes varied over time for each frequency (0, 20, 60, 90, and 100 dB sound). Each tone stimulus lasted for 5 or 10 sec in random order, and mice were stimulated continuously without interval. The sound stressors continued for 30 min as a set. In the original SS (sound stress) protocol, a set of 30-min stimuli was given once a day on days 1, 3, and 4 (FIG. 1A)^14. The RISS model intensified the stress protocol by increasing the stimulus frequency: a set of sound stimulus was repeated every 3 hours for 6 times overnight (from 16:00 to 10:00), followed by resting silence for 6 hours (from 10:00 to 16:00). The procedure was repeated on days 1, 3, and 4 as for the SS protocol. The control groups were placed in similar chambers for 4 days without stress exposure. Both groups of mice had access to food and water freely during the stress period. After the stimulus procedure, mice were returned to their original home cages in the animal care facility. In both the SS and RISS protocols, the day after completing the stress stimuli is called P0; the post-stress day 1, P1; and so on. In the experimental design of the […] single-day stimuli of intermittent SS (SISS), the day after SISS is called P′0; the post-stress day 1, P′1; and so on.
Animals were placed on an elevated mesh platform, and a 0.2-mN von Frey filament was applied to the plantar surface of both hind paws. A positive response was defined as lifting, shaking, guarding, or licking paws when the stimulus was applied. For each paw, the filament was applied 5 times at 30-sec intervals.
Mice were placed individually in Acrylic cubicles mounted on a glass surface maintained at 30° C. The test was performed after acclimatization. The thermal stimulus of the radiant heat was then applied to the plantar surface of each hind paw. Each mouse was tested in three sequential trials with an interval of 2-3 min. The assay cutoff was set at 30 sec to prevent tissue damage. Paw withdrawal latencies were calculated as the mean of three measures.
Muscle withdrawal thresholds were evaluated as described^46. […]
Analgesic drugs: Pregabalin (0.3, 1, 3 or 10 mg/kg bodyweight, i.p.; Toronto Research Chemicals), morphine (0.3, 1, 3 or 10 mg/kg bodyweight, i.p.), diclofenac (1, 3 or 10 mg/kg bodyweight, i.p.; Sigma-Aldrich) or vehicle (0.9% saline) was administered, and the effect of each drug was evaluated by testing 6 mice. […]

LPC16:0 = experiment: Serum LPC16:0 level in RISS mice at P0 by mass spectrometry; assay type: in vivo; settings: darapladib 10 mg/kg i.p. once daily, P0, triple quadrupole MS, vs vehicle; FIG. 3N
Method: Antioxidants: Systemic administration of NAC (200 mg/kg bodyweight, i.p.; Sigma-Aldrich) with Tempol (100 mg/kg bodyweight, i.p.; Sigma-Aldrich) or vehicle (phosphate buffered saline; PBS) was given 30 min before and after each RISS procedure at days 1, 3 and 4 (FIG. 3M)^48-50. A total of 6 doses of drug were given during the RISS protocol. Sensory testing was performed 1 hour after the last drug injection at P0 and at P4 and P7. PAF-AH inhibitors. Darapladib (Cayman, Ann Arbor, Mich.) was solubilized in DMSO: PBS containing 1% methyl-β-cyclodextrin (1:99) and given once daily by i.p. injection at 10 mg/kg body weight. Mice were randomly assigned to receive vehicle or darapladib for 5 consecutive days during RISS (FIG. 3M). […] Triple quadrupole mass spectrometry (QqQ MS) for absolute quantitative analysis of target lipids. Targeted analysis of LPC16:0, LPC18:0 and SM(d18:1/18:0) was measured by using an Agilent-1200 liquid chromatography system coupled to an Agilent-6410 QqQ MS with an ESI interface. […] Lipidomic profiling for relative quantitative analysis. Lipids were identified by comparing the LC/MS profiles of the metabolites of interest to that of a standard compound analyzed with identical conditions, and their relative abundance among samples was further evaluated. […] Collected data were processed with Progenesis QI (Waters) for lipid identification and relative quantitative analysis.

Structure (SMILES): CCN(CC)CCN(Cc1ccc(-c2ccc(C(F)(F)F)cc2)cc1)C(=O)Cn1c(SCc2ccc(F)cc2)nc(=O)c2c1CCC2 [darapladib, N-[2-(diethylamino)ethyl]-2-{2-[(4-fluorobenzyl)sulfanyl]-4-oxo-4,5,6,7-tetrahydro-1H-cyclopenta[d]pyrimidin-1-yl}-N-{[4′-(trifluoromethyl)biphenyl-4-yl]methyl}acetamide]
- development of RISS-induced chronic hypersensitivity (von Frey test) (RISS mice): prevented the development of chronic hypersensitivity
- LPC16:0 production after RISS (serum level) (LPC16:0): significantly reduced
